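Following 48 hours of exposure in 96-well plates, responses at five concentrations were used to interpolate endpoints linearly. Here, GI50 denotes the concentration required for 50% inhibition of growth.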 The source made the active and inactive calls. No stated cut-off is given here; in the data, active = GI50 up to about 1.1 µM and inactive = higher.
Columns and labels:
Assay in all cases: NCI tumour cell line growth inhibition, 48 h
[1] = tested on: MDA-N
[2] = tested on: M14
[3] = tested on: T47D
[4] = tested on: RXF 393
[5] = tested on: M19-MEL
[6] = tested on: KM12
[7] = tested on: SN12C
[8] = tested on: CAKI-1
[9] = tested on: NCI-H226
[10] = tested on: TK-10
[11] = tested on: Hs-578T
[12] = tested on: OVCAR-8
[13] = tested on: HCT-15
[14] = tested on: SK-OV-3
[15] = tested on: UACC-257
[16] = tested on: BT-549
[17] = tested on: COLO 205
[18] = tested on: SK-MEL-28
[19] = tested on: SW-620
[20] = tested on: OVCAR-3

How did the GI50 [1] turn out when `Cc1cc(C)c(-n2c(-c3ccc(Br)cc3)cs/c2=N\N=C2C=C(C(C)(C)C)C(=O)C(C(C)(C)C)=C2)c(C)c1` was run?
Its GI50 is > 100 µM (inactive).

What about the GI50 [2] of the same compound?
Its GI50 is > 100 µM (inactive).

And the GI50 [3]?
Its GI50 is > 100 µM (inactive).

What about the GI50 [4] of the same compound?
The GI50 was 21.7 µM (inactive).

What about the GI50 [5] of the same compound?
Its GI50 is > 100 µM (inactive).

And the GI50 [6]?
Its GI50 is > 100 µM (inactive).

And the GI50 [7]?
The GI50 was > 100 µM (inactive).

What about the GI50 [8] of the same compound?
The GI50 was > 100 µM (inactive).

And the GI50 [9]?
Its GI50 is > 100 µM (inactive).

What about the GI50 [10] of the same compound?
Its GI50 is > 71.8 µM (inactive).

And the GI50 [11]?
The GI50 was 15.3 µM (inactive).

What about the GI50 [12] of the same compound?
The GI50 was > 100 µM (inactive).

What about the GI50 [13] of the same compound?
Its GI50 is greater than 100 µM.

And the GI50 [14]?
Its GI50 is > 72.9 µM (inactive).

What about the GI50 [15] of the same compound?
The GI50 was > 100 µM (inactive).

And the GI50 [16]?
Its GI50 is > 100 µM (inactive).

And the GI50 [17]?
The GI50 was > 100 µM (inactive).

And the GI50 [18]?
The GI50 was > 100 µM (inactive).

What about the GI50 [19] of the same compound?
Its GI50 is > 100 µM (inactive).

And the GI50 [20]?
Its GI50 is > 100 µM (inactive).
